Laboratory results taken from patent US8497260B2, “2-arylbenzothiophene derivatives or pharmaceutically acceptable salts thereof, preparation method thereof, and pharmaceutical composition for the diagnosis or treatment of degenerative brain disease containing the same as active ingredient” (Industry-University Cooperation Foundation Sogang University, priority 2009, dated 2013).
pKi: −log10 of the molar value.

Test system: not given
Assay: not given
Settings: not given

Row | SMILES | melting point [°C]
1 | O=[N+]([O-])c1ccc(-c2cc3ccc(O)cc3s2)cc1 [Example 4, 2-(4-nitrophenyl)-6-hydroxybenzothiophene] | 265 to 265.2
2 | Nc1ccc(-c2cc3ccc(OCCCF)cc3s2)cc1 [Example 10, 2-(4-aminophenyl)-6-(3-fluoropropoxy)benzothiophene] | 119.6 to 123.2
3 | CNc1ccc(-c2cc3ccc(OCCF)cc3s2)cc1 [Example 12, 2-[4-(N-monomethylamino)phenyl]-6-(2-fluoroethoxy)benzothiophene] | 156.9 to 159.7
4 | CNc1ccc(-c2cc3ccc(OCCCF)cc3s2)cc1 [Example 13, 2-[4-(N-monomethylamino)phenyl]-6-(3-fluoropropoxy)benzothiophene] | 121.4 to 123.1
5 | CN(C)c1ccc(-c2cc3ccc(OCCF)cc3s2)cc1 [Example 16, 2-[4-(N,N-dimethylamino)phenyl]-6-(2-fluoroethoxy)benzothiophene] | 183.9 to 195.9
6 | CN(C)c1ccc(-c2cc3ccc(OCCCF)cc3s2)cc1 [Example 17, 2-[4-(N,N-dimethylamino)phenyl]-6-(3-fluoropropoxy)benzothiophene] | 177.7 to 183

Molecular target: T1, β-amyloid (Aβ1-42) fibrils (Homo sapiens, UniProt P05067)
T1 construct: β-Amyloid peptide (Aβ1-42, 1 mg, Bachem); purchased Bachem
T1 sequence (P05067 672-713 limits assumed): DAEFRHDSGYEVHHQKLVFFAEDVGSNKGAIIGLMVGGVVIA
Assay: Inhibitory binding assay against [125I]TZDM on β-amyloid (Aβ1-42) fibrils
Settings: Aβ1-42 fibrils 10 nM, [125I]TZDM 0.05 nM, 10% ethanol, room temperature 3 hours, nonspecific binding with 2 μM ThT; read-out: Ki, relative binding affinity to [125I]TZDM (112)
Procedure: β-Amyloid peptide (Aβ1-42, 1 mg, Bachem) was completely dissolved in 1 mL of DMSO, 9 mL of phosphate buffered saline (PBS) (pH 7.4) was added thereto and well mixed. The resulting mixture was incubated at 37° C. for 60 minutes to form β-amyloid fibrils, 0.5 mL was taken and transferred to each e-tube and placed into a refrigerator maintained at −80° C.
To determine whether β-amyloid peptide was properly formed into β-amyloid fibrils, 150 μL of 5 μM Thioflavin T (ThT) was added to 50 μL of incubated β-amyloid fibrils, the fluorescence intensity of ThT binding specifically to β-amyloid fibrils at excitation/emission wavelengths (λex/λem), e.g., 450 nm/480 nm, was detected using a spectrometer.
0.850 mL of 10% Ethanol was placed into 12 mm×75 mm borosilicate test tubes, and 50 μL of β-amyloid (Aβ1-42) fibrils were added such that the final reaction concentration became 10 nM. […] Here, the nonspecific binding was performed using 2 μM Thioflavin T (ThT).

Row | SMILES | pKi
7 | COc1cccc2sc(-c3ccc([N+](=O)[O-])cc3)cc12 [Example 1, 2-(4-nitrophenyl)-4-methoxybenzothiophene] | 9.14
8 | COc1ccc2cc(-c3cccc([N+](=O)[O-])c3)sc2c1 [Example 2, 2-(3-nitrophenyl)-6-methoxybenzothiophene] | 9.19
9 | COc1ccc2cc(-c3ccc([N+](=O)[O-])cc3)sc2c1 [Example 3, 2-(4-nitrophenyl)-6-methoxybenzothiophene] | 8.64
10 | O=[N+]([O-])c1ccc(-c2cc3ccc(O)cc3s2)cc1 [Example 4, 2-(4-nitrophenyl)-6-hydroxybenzothiophene] | 8.97
11 | COc1ccc2cc(-c3ccc(N)cc3)sc2c1 [Example 8, 2-(4-aminophenyl)-6-methoxybenzothiophene] | 9.29
12 | Nc1ccc(-c2cc3ccc(OCCF)cc3s2)cc1 [Example 9, 2-(4-aminophenyl)-6-(2-fluoroethoxy)benzothiophene] | 9.42
13 | Nc1ccc(-c2cc3ccc(OCCCF)cc3s2)cc1 [Example 10, 2-(4-aminophenyl)-6-(3-fluoropropoxy)benzothiophene] | 9.19
14 | CNc1ccc(-c2cc3ccc(OC)cc3s2)cc1 [Example 11, 2-[4-(N-monomethylamino)phenyl]-6-methoxybenzothiophene] | 9.37
15 | CNc1ccc(-c2cc3ccc(OCCF)cc3s2)cc1 [Example 12, 2-[4-(N-monomethylamino)phenyl]-6-(2-fluoroethoxy)benzothiophene] | 10.19
16 | CNc1ccc(-c2cc3ccc(OCCCF)cc3s2)cc1 [Example 13, 2-[4-(N-monomethylamino)phenyl]-6-(3-fluoropropoxy)benzothiophene] | 9.57
17 | COc1cccc2sc(-c3ccc(N(C)C)cc3)cc12 [Example 14, 2-[4-(N,N-dimethylamino)phenyl]-4-methoxybenzothiophene] | 9.11
18 | COc1ccc2cc(-c3ccc(N(C)C)cc3)sc2c1 [Example 15, 2-[4-(N,N-dimethylamino)phenyl]-6-methoxybenzothiophene] | 8.80
19 | CN(C)c1ccc(-c2cc3ccc(OCCF)cc3s2)cc1 [Example 16, 2-[4-(N,N-dimethylamino)phenyl]-6-(2-fluoroethoxy)benzothiophene] | 10.10
20 | CN(C)c1ccc(-c2cc3ccc(OCCCF)cc3s2)cc1 [Example 17, 2-[4-(N,N-dimethylamino)phenyl]-6-(3-fluoropropoxy)benzothiophene] | 8.13
21 | COc1ccc2cc(-c3ccc(OCCF)nc3)sc2c1 [Example 18, 2-[2-(2-fluoroethoxy)pyridine-5-yl]-6-methoxybenzothiophene] | 10.05
22 | COc1ccc2cc(-c3ccc(OCCCF)nc3)sc2c1 [Example 19, 2-[2-(3-fluoropropoxy)pyridine-5-yl]-6-methoxybenzothiophene] | 9.41
23 | COc1ccc(-c2cc3ccc(OCCF)cc3s2)cn1 [Example 20, 2-(2-methoxypyridine-5-yl)-6-(2-fluoroethoxy)benzothiophene] | 8.88
24 | Nc1ccc(-c2cc3ccc(OCCF)cc3s2)cn1 [Example 21, 2-(2-aminopyridine-5-yl)-6-(2-fluoroethoxy)benzothiophene] | 8.95
25 | CNc1ccc(-c2cc3ccc(OCCF)cc3s2)cn1 [Example 22, 2-[2-(N-monomethylamino)pyridine-5-yl]-6-(2-fluoroethoxy)benzothiophene] | 9.34
26 | CN(C)c1ccc(-c2cc3ccc(OCCF)cc3s2)cn1 [Example 23, 2-[2-(N,N-dimethylamino)pyridine-5-yl]-6-(2-fluoroethoxy)benzothiophene] | 9.14
27 | Nc1ccc(-c2cc3ccc(OCCCF)cc3s2)cn1 [Example 24, 2-(2-aminopyridine-5-yl)-6-(3-fluoropropoxy)benzothiophene] | 8.93
28 | CNc1ccc(-c2cc3ccc(OCCCF)cc3s2)cn1 [Example 25, 2-[2-(N-monomethylamino)pyridine-5-yl]-6-(3-fluoropropoxy)benzothiophene] | 10.22
29 | CN(C)c1ccc(-c2cc3ccc(OCCCF)cc3s2)cn1 [Example 26, 2-[2-(N,N-dimethylamino)pyridine-5-yl]-6-(3-fluoropropoxy)benzothiophene] | 10.05

Row | SMILES | pKi
30 | COc1ccc2cc(-c3ccnc(OCCF)c3)sc2c1 [Example 27, 2-[2-(2-fluoroethoxy)pyridine-4-yl]-6-methoxybenzothiophene] | 9.08
31 | COc1ccc2cc(-c3ccnc(OCCCF)c3)sc2c1 [Example 28, 2-[2-(3-fluoropropoxy)pyridine-4-yl]-6-methoxybenzothiophene] | 10.00
32 | COc1cc(-c2cc3ccc(OCCCF)cc3s2)ccn1 [Example 30, 2-(2-methoxypyridine-4-yl)-6-(3-fluoropropoxy)benzothiophene] | 9.10
33 | COc1ccc2cc(-c3ccnc(OCCF)n3)sc2c1 [Example 31, 2-[2-(2-fluoroethoxy)pyrimidine-4-yl]-6-methoxybenzothiophene] | 9.21
34 | COc1ccc2cc(-c3ccnc(OCCCF)n3)sc2c1 [Example 32, 2-[2-(3-fluoropropoxy)pyrimidine-4-yl]-6-methoxybenzothiophene] | 9.34
35 | COc1ccc2cc(-c3ccnc(NCCF)n3)sc2c1 [Example 33, 2-[2-(N-(2-fluoroethyl)amino)pyrimidine-4-yl]-6-methoxybenzothiophene] | 9.28
36 | COc1nccc(-c2cc3ccc(OCCF)cc3s2)n1 [Example 34, 2-(2-methoxypyrimidine-4-yl)-6-(2-fluoroethoxy)benzothiophene] | 9.33
37 | CNc1nccc(-c2cc3ccc(OCCF)cc3s2)n1 [Example 35, 2-[2-(N-monomethylamino)pyrimidine-4-yl]-6-(2-fluoroethoxy)benzothiophene] | 9.26
38 | COc1nccc(-c2cc3ccc(OCCCF)cc3s2)n1 [Example 37, 2-(2-methoxypyrimidine-4-yl)-6-(3-fluoropropoxy)benzothiophene] | 9.36
39 | CNc1ccnc(-c2cc3ccc(OCCF)cc3s2)n1 [Example 41, 2-[4-(N-monomethylamino)pyrimidine-2-yl]-6-(2-fluoroethoxy)benzothiophene] | 9.28
40 | CN(C)c1ccnc(-c2cc3ccc(OCCF)cc3s2)n1 [Example 42, 2-[4-(N,N-dimethylamino)pyrimidine-2-yl]-6-(2-fluoroethoxy)benzothiophene] | 9.60
41 | CNc1ccnc(-c2cc3ccc(OCCCF)cc3s2)n1 [Example 43, 2-[4-(N-monomethylamino)pyrimidine-2-yl]-6-(3-fluoropropoxy)benzothiophene] | 9.43
42 | COc1ccc2cc(-c3ccc(OCCF)nn3)sc2c1 [Example 44, 2-[3-(2-fluoroethoxy)pyridazine-6-yl]-6-methoxybenzothiophene] | 10.19
43 | COc1ccc2cc(-c3ccc(OCCCF)nn3)sc2c1 [Example 45, 2-[3-(3-fluoropropoxy)pyridazine-6-yl]-6-methoxybenzothiophene] | 9.00
44 | Nc1ccc(-c2cc3ccc(OCCF)cc3s2)nn1 [Example 47, 2-(3-aminopyridazine-6-yl)-6-(2-fluoroethoxy)benzothiophene] | 9.36
45 | CNc1ccc(-c2cc3ccc(OCCF)cc3s2)nn1 [Example 48, 2-[3-(N-monomethylamino)pyridazine-6-yl]-6-(2-fluoroethoxy)benzothiophene] | 9.52
46 | CN(C)c1ccc(-c2cc3ccc(OCCF)cc3s2)nn1 [Example 49, 2-[3-(N,N-dimethylamino)pyridazine-6-yl]-6-(2-fluoroethoxy)benzothiophene] | 9.37
47 | COc1ccc(-c2cc3ccc(OCCCF)cc3s2)nn1 [Example 50, 2-(3-methoxypyridazine-6-yl)-6-(3-fluoropropoxy)benzothiophene] | 9.74
48 | Nc1ccc(-c2cc3ccc(OCCCF)cc3s2)nn1 [Example 51, 2-(3-aminopyridazine-6-yl)-6-(3-fluoropropoxy)benzothiophene] | 9.42
49 | CNc1ccc(-c2cc3ccc(OCCCF)cc3s2)nn1 [Example 52, 2-[3-(N-monomethylamino)pyridazine-6-yl]-6-(3-fluoropropoxy)benzothiophene] | 9.26
50 | CN(C)c1ccc(-c2cc3ccc(OCCCF)cc3s2)nn1 [Example 53, 2-[3-(N,N-dimethylamino)pyridazine-6-yl]-6-(3-fluoropropoxy)benzothiophene] | 9.19
51 | COc1ccc2cc(-c3cncc(OCCCF)n3)sc2c1 [Example 55, 2-[2-(3-fluoropropoxy)pyrazine-6-yl]-6-methoxybenzothiophene] | 9.35

Molecular target: β-amyloid deposits
Assay: not given
Settings: values from cited documents; read-out: binding affinity (Ki); cited from earlier work

Row | SMILES | pKi
52 | [11CH3]Nc1ccc(-c2nc3ccc(O)cc3s2)cc1 [Control Group] | 8.55
53 | CC(=C(C#N)C#N)c1ccc2cc(N(C)CCF)ccc2c1 [[^18F]FDDNP] | 9.92
54 | CN(C)c1ccc(-c2cn3cc(I)ccc3n2)cc1 [[^123I/^125I]IMPY] | 7.82
